In experiment [1] the test system is GAERS (genetic rat model of GGE with absence seizures). Kind of experiment: Systemic administration in GAERS, EEG spike-and-wave discharges. The class given is in vivo. The settings on record: 30 mg/kg intraperitoneal; shift from 8 Hz with ethosuximide 100 mg/kg and vehicle. Here is the method: In vivo anti-seizure activity of Z941 and Z944 was assessed in eight female epileptic GAERS (180 to 250 g and 18 to 26 weeks). Rats were implanted with extradural recording electrodes. EEG data were acquired at a sampling rate of 256 Hz unfiltered using Compumedics ProFusion digital EEG acquisition software. After 60-min habituation, rats received intraperitoneal injections of drug, and after a further 15 min, the EEG was acquired for 120 min—the test period. […] Over a 5-week period, each rat received all treatments (crossover design) in a randomized manner with a 48-hour washout period between dosing of test compound, control vehicle, and positive control articles. […] Clinical observations of neurotoxic adverse effects were assessed every 15 min throughout the 120-min test period. These were quantified according to an ordinal scale of 0 to 4: 0, no sedation, normal movement; 1, slight sedation, slow movement but alert when startled; 2, mildly sedate, reduced struggle to restraint; 3, sedate, not moving in cage, but does respond to provocation; 4, very sedate, catatonic and unable to stand when provoked. The eight scores (taken for one experiment per rat) were then averaged, and group means were calculated for each treatment. Animals were also monitored daily for general health throughout the study period (that is, weight gain and fur condition). […]

Experiment [2] has as its system GAERS nRT T-type Ca2+ channel currents (mixed CaV3.2/CaV3.3 current). The experiment can be described thus: Thalamic slice whole-cell voltage-clamp recordings of nRT T-type Ca2+ channel currents. The experiment is classed as cell-based, rat. The settings on record: and wash off. Set-up: dose or concentration left out as unconfirmed.
Experiment [3] deals with post-SE rats. Kind of experiment: Morris water maze in post-SE rats. The conditions noted are these: Z944 60 mg/kg/day, levetiracetam 200 mg/kg/day for 4 weeks. The class given is in vivo, rat. As for the experimental part:
All behavioural tests were performed in a light-controlled (˜110 lux), closed, quiet and clean room in the. Behavioural testing was performed in a blinded manner to the treatment groups. All of the behavioural tests were video recorded for future analysis. OF, EPM and MWM sessions were filmed using a digital camera mounted above the centre of the arena, which was connected to a computer for the recording and objective analysis of digitized behavioural tests (EthoVision 3.0.15, Noldus). The first behavioural test was performed one week after the last EEG recording. The different behavioural tests/session were performed 24 hours apart from each other. All tests were scored by an experienced observer who was blind to the experimental conditions of the animals.
The MWM is a circular black PVC plastic pool of 160 cm diameter which is filled to a depth of either 2.5 cm above a 10 cm diameter hidden platform water at 25±1° C. The platform is located in the centre of the South-West quadrant during the first 3 sessions and changed to North-East quadrant for the remaining sessions. Visual cues are placed in the main 4 cardinal points, consisting of large black and white symbols that serve as orientation landmarks for the rats. […] The latency to find the escape platform, speed and strategic path used by the animal to locate the platform are recorded. […]

Regarding `CC(C)(C)NC(=O)CN1CCC(CNC(=O)c2cc(F)cc(Cl)c2)CC1` [Z944], in experiment [1], the “peak cycle frequency power during seizure activity (FFT)” value is 6.5 Hz. In addition, in experiment [2], the “reversibility of inhibition of GAERS nRT T-type Ca2+ channel currents” value is “nonreversible inhibition”. For the same molecule, in experiment [3], the “time to find the hidden platform (cognition)” value is on record as “Improves Cognition”.

The record behind these values is patent US20210128537A1, “T-TYPE CALCIUM CHANNEL MODULATORS AND METHODS OF USE THEREOF” (Praxis Precision Medicines, inc., priority 2016, published 2021).
